Measured values as given in patent US20150105252A1, “SUBSTITUTED PYRAZOLES AS HERBICIDES” (E I DU PONT DE NEMOURS AND COMPANY, priority 2013, published 2015).

Assays:
foxtail, green = experiment: Test D preemergence; type: in vivo, Setaria viridis; conditions: scale 0 to 100
Description: (§1) Seeds of plant species selected from bluegrass (annual bluegrass, Poa annua), blackgrass (Alopecurus myosuroides), canarygrass (littleseed canarygrass, Phalaris minor), chickweed (common chickweed, Stellaria media), galium (catchweed bedstraw, Galium aparine), bromegrass, downy (downy bromegrass, Bromus tectorum), field poppy (Papaver rhoeas), field violet (Viola arvensis), foxtail, green (green foxtail, Setaria viridis), deadnettle (henbit deadnettle, Lamium amplexicaule), ryegrass, Italian (Italian ryegrass, Lolium multiflorum), kochia (Kochia scoparia), lambsquarters (Chenopodium album), oilseed rape (Brassica napus), pigweed (redroot pigweed, Amaranthus retroflexus), chamomile (scentless chamomile, Matricaria inodora), speedwell (bird's-eye speedwell, Veronica persica), barley, spring (spring barley, Hordeum vulgare), wheat, spring (spring wheat, Triticum aestivum), buckwheat, wild (wild buckwheat, Polygonum convolvulus), mustard, wild (wild mustard, Sinapis arvensis), oat, wild (wild oat, Avena fatua), radish, wild (wild radish, Raphanus raphanistrum), windgrass (Apera spica-venti), Russian thistle (Salsola kali), barley, winter (winter barley, Hordeum vulgare), and wheat, winter (winter wheat, Triticum aestivum) were planted into a silt loam soil and treated preemergence with test chemicals formulated in a non-phytotoxic solvent mixture which included a surfactant.
(§2) At the same time, these species were planted in pots containing Redi-Earth® planting medium (Scotts Company, 14111 Scottslawn Road, Marysville, Ohio 43041) comprising spaghnum peat moss, vermiculite, wetting agent and starter nutrients and treated with postemergence applications of the test chemicals formulated in the same manner. Plants ranged in height from 2 to 18 cm (1- to 4-leaf stage). Treated plants and controls were maintained in a controlled growth environment for 14 to 21 days after which time all species were compared to controls and visually evaluated. Plant response ratings, summarized in Table D, are based on a scale of 0 to 100 where 0 is no effect and 100 is complete control. A dash (-) response means no test result.

deadnettle = experiment: Test D preemergence; type: in vivo, Lamium amplexicaule; conditions: scale 0 to 100
Description: as §1, §2

johnsongrass = experiment: Test E preemergence; type: in vivo, Sorghum halepense; conditions: 21 days, scale 0 to 100
Description: Seeds of plant species selected from bermudagrass (Cynodon dactylon), Surinam grass (Brachiaria decumbens), crabgrass, large (large crabgrass, Digitaria sanguinalis), crabgrass, naked (naked crabgrass, Digitaria nuda), foxtail, green (green foxtail, Setaria viridis), johnsongrass (Sorghum halepense), kochia (Kochia scoparia), morningglory (pitted morningglory, Ipomoea lacunosa), nutsedge, purple (purple nutsedge, Cyperus rotundus), ragweed (common ragweed, Ambrosia elation), mustard, black (black mustard, Brassica nigra), guineagrass (Panicum maximum), dallisgrass (Paspalum dilatatum), barnyardgrass (Echinochloa crus-galli), sandbur (southern sandbur, Cenchrus echinatus), sowthistle (common sowthistle, Sonchus oleraceous), ryegrass, Italian (Italian ryegrass, Lolium multiflorum), signalgrass (broadleaf signalgrass, Brachiaria platyphylla), dayflower, VA (Virginia (VA) dayflower, Commelina virginica), bluegrass (annual bluegrass, Poa annua), quackgrass (Elytrigia repens), mallow (common mallow, Malva sylvestris), buckwheat, wild (wild buckwheat, Polygonum convolvulus), leafy spurge (Euphorbia esula), common chickweed (Stellaria media), wild poinsettia (Euphorbia heterophylla), pigweed, palmer (palmer pigweed, Amaranthus palmeri), and pigweed (redroot pigweed, Amaranthus retroflexus) were planted into a blend of loam soil and sand and treated preemergence with test chemicals formulated in a non-phytotoxic solvent mixture which included a surfactant.
Treated plants and controls were maintained in a greenhouse for 21 days, after which time all species were compared to controls and visually evaluated. Plant response ratings, summarized in Table E, are based on a scale of 0 to 100 where 0 is no effect and 100 is complete control. A dash (-) response means no test result.

lambsquarters = experiment: Test F preemergence; type: in vivo, Chenopodium album
Description: (§3) Seeds of plant species selected from corn (Zea mays), soybean (Glycine max), velvetleaf (Abutilon theophrasti), lambsquarters (Chenopodium album), wild poinsettia (Euphorbia heterophylla), pigweed, palmer (palmer pigweed, Amaranthus palmeri), common waterhemp (Amaranthus rudis), surinam grass (Brachiaria decumbens), large crabgrass (Digitaria sanguinalis), crabgrass, Brazil (Brazilian crabgrass, Digitaria horizontalis), fall panicum (Panicum dichotomiflorum), giant foxtail (Setaria faberii), green foxtail (Setaria viridis), goosegrass (Eleusine indica), johnsongrass (Sorghum halepense), common ragweed (Ambrosia elation), barnyardgrass (Echinochloa crus-galli), southern sandbur (Cenchrus echinatus), arrowleaf sida (Sida rhombifolia), Italian ryegrass (Lolium multiflorum), dayflower, VA (Virginia (VA) dayflower, Commelina virginica), field bindweed (Convolvulus arvensis), cocklebur (common cocklebur, Xanthium strumarium), morningglory (Ipomoea coccinea), nightshade (eastern black nightshade, Solanum ptycanthum), kochia (Kochia scoparia), yellow nutsedge (Cyperus esculentus), and hairy beggarticks (Bidens pilosa), were planted into a silt loam soil and treated preemergence with test chemicals formulated in a non-phytotoxic solvent mixture which included a surfactant.
(§4) At the same time, plants from these crop and weed species and also horseweed (Canada horseweed, Conyza canadensis), smartweed (ladysthumb smartweed, Polygonum persicaria), waterhemp_RES1, (ALS & Triazine resistant common waterhemp, Amaranthus rudis), and waterhemp_RES2, (ALS & HPPD resistant common waterhemp, Amaranthus rudis) were treated with postemergence applications of test chemicals formulated in the same manner. Plants ranged in height from 2 to 18 cm for postemergence treatments (1- to 4-leaf stage). Treated plants and controls were maintained in a greenhouse for 14 to 21 days, after which time all species were compared to controls and visually evaluated. Plant response ratings, summarized in Table F, are based on a scale of 0 to 100 where 0 is no effect and 100 is complete control. A dash (-) response means no test result.

fall panicum = experiment: Test F preemergence; type: in vivo, Panicum dichotomiflorum
Description: as §3, §4

giant foxtail = experiment: Test F preemergence; type: in vivo, Setaria faberii
Description: as §3, §4

common ragweed = experiment: Test F preemergence; type: in vivo, Ambrosia elation
Description: as §3, §4

[1] = Preemergence, 62 g ai/ha, scale 0 to 100
[2] = Preemergence, 125 g ai/ha, scale 0 to 100
[3] = Preemergence, 31 g ai/ha, scale 0 to 100
[4] = preemergence, 8 g ai/ha, scale 0 to 100, 100 is complete control
[5] = preemergence, 16 g ai/ha, scale 0 to 100, 100 is complete control
[6] = Preemergence, 16 g ai/ha, scale 0 to 100
[7] = Preemergence, 250 g ai/ha, scale 0 to 100

Row | Structure (SMILES) | Plant response rating, Foxtail, Green (foxtail, green; 62 g ai/ha) | Plant response rating, Foxtail, Green (foxtail, green; 125 g ai/ha) | Plant response rating, Foxtail, Green (foxtail, green; 250 g ai/ha) | Plant response rating, Lambsquarters (lambsquarters; [1]) | Plant response rating, Lambsquarters (lambsquarters; [2]) | Plant response rating, Fall Panicum (fall panicum; [1]) | Plant response rating, Fall Panicum (fall panicum; [2]) | Plant response rating, Fall Panicum (fall panicum; [4]) | Plant response rating, Giant Foxtail (giant foxtail; [1]) | Plant response rating, Giant Foxtail (giant foxtail; [2]) | Plant response rating, Giant Foxtail (giant foxtail; [4]) | Plant response rating, Common Ragweed (common ragweed; [1]) | Plant response rating, Common Ragweed (common ragweed; [2]) | Plant response rating, Common Ragweed (common ragweed; [4]) | Plant response rating, Lambsquarters (lambsquarters; [5]) | Plant response rating, Fall Panicum (fall panicum; [6]) | Plant response rating, Fall Panicum (fall panicum; [5]) | Plant response rating, Giant Foxtail (giant foxtail; [5]) | Plant response rating, Common Ragweed (common ragweed; [6]) | Plant response rating, Common Ragweed (common ragweed; [5]) | also measured
1 | CCc1cc(C(=O)NC(C)C)nn1Cc1ccnc(C(F)(F)F)c1 [Compound 103] | 100 | 100 | 100 |  |  |  |  |  |  |  |  |  |  |  |  |  |  |  |  |  | Plant response rating, Foxtail, Green (foxtail, green; 31 g ai/ha): 20; Plant response rating, Deadnettle (deadnettle; 31 g ai/ha): 5; Plant response rating, Deadnettle (deadnettle; 62 g ai/ha): 15; Plant response rating, Deadnettle (deadnettle; 125 g ai/ha): 30; Plant response rating, Deadnettle (deadnettle; 250 g ai/ha): 30; Plant response rating, Johnsongrass (johnsongrass; 16 g ai/ha): 70; Plant response rating, Johnsongrass (johnsongrass; 31 g ai/ha): 100; Plant response rating, Johnsongrass (johnsongrass; 62 g ai/ha): 100; Plant response rating, Johnsongrass (johnsongrass; 125 g ai/ha): 100; Plant response rating, Johnsongrass (johnsongrass; 250 g ai/ha): 100
2 | CCCc1cc(C(=O)NCC(F)(F)F)nn1Cc1cc(C(F)(F)F)nn1C [Compound 138] | 100 | 100 | 100 |  |  |  |  |  |  |  |  |  |  |  |  |  |  |  |  |  | Plant response rating, Deadnettle (deadnettle; 31 g ai/ha): 85; Plant response rating, Deadnettle (deadnettle; 62 g ai/ha): 100; Plant response rating, Deadnettle (deadnettle; 125 g ai/ha): 100; Plant response rating, Deadnettle (deadnettle; 250 g ai/ha): 100
3 | CCNC(=O)c1cc(CCCl)n(Cc2ccnc(C(F)(F)F)c2)n1 [Compound 179] |  |  |  | 30 | 100 | 70 | 98 | 0 | 40 | 98 | 0 | 65 | 80 | 0 |  |  |  |  |  |  | Plant response rating, Fall Panicum (fall panicum; [3]): 35; Plant response rating, Giant Foxtail (giant foxtail; [3]): 25; Plant response rating, Common Ragweed (common ragweed; [3]): 40
4 | CCNC(=O)c1cc(CC)n(Cc2ccnc(C(F)(F)F)c2)n1 [Compound 196] |  |  |  | 98 | 100 | 98 | 100 | 0 | 70 | 100 | 0 | 70 | 90 | 0 | 5 | 90 | 0 | 0 | 65 | 30 | Plant response rating, Lambsquarters (lambsquarters; [4]): 0
5 | Cc1cc(C(=O)NC(C)C)nn1Cc1ccnc(C(F)(F)F)c1 [Compound 197] |  |  |  | 35 | 80 | 70 | 98 | 0 | 20 | 100 | 0 | 40 | 80 | 0 | 35 | 0 | 0 | 0 | 35 | 0 | Plant response rating, Lambsquarters (lambsquarters; [4]): 0
6 | CCc1cc(C(=O)NC2CC2)nn1Cc1ccnc(OCC(F)(F)F)c1 [Compound 200] |  |  |  | 65 | 70 | 35 | 80 |  | 0 | 5 |  | 0 | 5 |  | 0 | 0 | 0 | 0 | 0 | 0 | Plant response rating, Lambsquarters (lambsquarters; [7]): 98; Plant response rating, Fall Panicum (fall panicum; [7]): 90; Plant response rating, Giant Foxtail (giant foxtail; [7]): 40; Plant response rating, Common Ragweed (common ragweed; [7]): 30
